According to patent US9549965B2, “Pharmaceutical composition for treating a microbial infection” (HELPERBY THERAPEUTICS LIMITED, priority 2010, dated 2017):
“And” between values parts separate entries of the source, which are not always exact repeats. Equal values may be shown once. Where a name gives a salt, the structure may show the parent alone. Read-outs that look alike come from different tables or passages of the source.

How the values were obtained:
stationary phase E. coli = test: Bactericidal activity against stationary phase E. coli (CFU counts); type: cell-based, Escherichia coli; settings: Escherichia coli, read-out: Log kill; for log reduction at 6.25 µg/mL: 6.25 μg/ml; for log reduction at 12.5 µg/mL: 12.50 μg/ml; for log reduction at 25 µg/mL: 25.00 μg/ml
Protocol: (§1) Escherichia coli K12; Gram negative; Reference strain.
(§2) Bacteria were grown in 10 ml of nutrient broth (No. 2 (Oxoid)) overnight at 37° C., with continuous shaking at 120 rpm. The overnight cultures were diluted (1000×) in 100 ml of growth medium and then incubated without shaking for 10 days. Viability of the bacteria was estimated by colony forming unit (CFU) counts at 2 hour intervals at the first 24 hours and at 12-24 hours afterwards. From serial 10-fold dilutions of the experimental cultures, 100 μl samples were added to triplicate plates of nutrient agar plates (Oxoid) and blood agar plates (Oxoid). Colony forming units (CFU) were counted after incubation of the plates at 37° C. for 24 hours.
(§3) Cultures incubated for more than 24 hours are in the stationary phase. For drug screening, 5-6 day old stationary phase cultures were used.
(§4) Different concentrations of each test compound were incubated with stationary phase cultures (5-6 day cultures) in 96 well plates for 24 or 48 hours. Bactericidal activity was then determined by taking CFU counts of the resulting cultures, as described above.

log phase E. coli [1] = test: MIC against log phase E. coli; type: cell-based, Escherichia coli
Protocol: as §1
(§5) The above-described overnight cultures were diluted (1000×) with iso-sensitest broth. The cultures were then incubated at 37° C. with shaking for 1-2 hours to reach log CFU 6, which served as log phase cultures.
(§6) The bactericidal activity of the drugs against log phase cultures were determined by minimal inhibitory concentration (MIC) of the drugs, which is defined as the lowest concentration which inhibits visible growth. Different concentrations of each test compound were incubated with the log-phase cultures in 96 well plates for 24 hours. Bactericidal activity was then examined by taking a spectrophotometer reading (using a plate reader) at 405 nm.

[2] = test system: stationary phase S. aureus; test: Bactericidal activity against stationary phase S. aureus (CFU counts); type: cell-based, Staphylococcus aureus; settings: for log reduction at 6.25 µg/mL / log reduction at 12.5 µg/mL / log reduction at 25 µg/mL: Staphylococcus aureus, read-out: Log Kill
Protocol: Staphylococcus aureus (Oxford strain); Gram positive; Reference strain.
as §2, §3, §4

[3] = test system: NDM-1 Klebsiella pneumoniae; test: Chequerboard analysis with colistin against NDM-1 Klebsiella pneumoniae; type: cell-based
persistent E. coli = test: Bactericidal activity against persistent E. coli selected by gentamicin; type: cell-based, Escherichia coli
Protocol: as §1
An antibiotic (gentamicin) was added to 5-6 day stationary-phase cultures to the final concentration of 50 to 100 μg/ml for 24 hours. After 24 hours of antibiotic treatment, the cells are washed 3 times with phosphate buffered saline (PBS), and then resuspended in PBS. The surviving bacterial cells are used as persisters. Viability is estimated by CFU counts. The persisters were then used in measurements of bactericidal activity for test compounds.
Different concentrations of each test compound were incubated with the (persister) cell suspension in 96 well plates for various periods of time (24 and 48 hours). Bactericidal activity was then determined by taking CFU counts of the resulting cultures, as described above.

log phase E. coli [4] = test: Chequerboard analysis with polymyxin E against log phase E. coli; type: cell-based, Escherichia coli
Protocol: as §1, §5, §6

[5] = Escherichia coli, read-out: MIC

CCN(CC)CCCC(C)Nc1c2ccc(Cl)cc2nc2ccc(OC)cc12 (centres unmarked) [Quinacrine hydrochloride]
log reduction at 6.25 µg/mL (stationary phase E. coli): 1.27
log reduction at 12.5 µg/mL (stationary phase E. coli): 2.14
log reduction at 25 µg/mL (stationary phase E. coli): 6.14
MIC (log phase E. coli [1]; [5]): > 50 µg/mL

Clc1ccc(C(Cn2ccnc2)OCc2ccsc2Cl)c(Cl)c1 (centres unmarked) [Tioconazole]
log reduction at 6.25 µg/mL ([2]; 6.25 μg/ml): 0
log reduction at 12.5 µg/mL ([2]; 12.5 μg/ml): 6.15
log reduction at 25 µg/mL ([2]; 25 μg/ml): 6.15

CN(C)CCOc1ccc(/C(=C(/CCCl)c2ccccc2)c2ccccc2)cc1 [Toremifene citrate]
log reduction at 6.25 µg/mL ([2]; 6.25 μg/ml): 6.15
log reduction at 12.5 µg/mL ([2]; 12.5 μg/ml): 6.15
log reduction at 25 µg/mL ([2]; 25 μg/ml): 6.15

CN1CCN(CCCN2c3ccccc3Sc3ccc(C(F)(F)F)cc32)CC1 [Trifluoperazine hydrochloride]
log reduction at 6.25 µg/mL ([2]; 6.25 μg/ml): 0
log reduction at 12.5 µg/mL ([2]; 12.5 μg/ml): 2.22
log reduction at 25 µg/mL ([2]; 25 μg/ml): 6.03
log reduction at 6.25 µg/mL (stationary phase E. coli): -0.12
log reduction at 12.5 µg/mL (stationary phase E. coli): 6.14
log reduction at 25 µg/mL (stationary phase E. coli): 6.14
MIC (log phase E. coli [1]; [5]): 20 µg/mL
spectrophotometer reading ([3]; trifluoperazine hydrochloride 0.25 mg/L alone): 0.96
spectrophotometer reading ([3]; trifluoperazine hydrochloride 0.5 mg/L alone): 0.95
spectrophotometer reading ([3]; trifluoperazine hydrochloride 1 mg/L alone): 0.94
spectrophotometer reading ([3]; trifluoperazine hydrochloride 2 mg/L alone): 0.96
spectrophotometer reading ([3]; trifluoperazine hydrochloride 4 mg/L alone): 0.95
spectrophotometer reading ([3]; trifluoperazine hydrochloride 8 mg/L alone): 0.97
spectrophotometer reading ([3]; trifluoperazine hydrochloride 16 mg/L alone): 0.98
spectrophotometer reading ([3]; trifluoperazine hydrochloride 32 mg/L alone): 0.95
spectrophotometer reading ([3]; trifluoperazine hydrochloride 64 mg/L alone): 0.77
spectrophotometer reading ([3]; trifluoperazine hydrochloride 128 mg/L alone): 0.87
spectrophotometer reading ([3]; trifluoperazine hydrochloride 256 mg/L alone): 1.33

Bithionate sodium
Log Kill ([2]; 6.25 μg/ml): 0.01
Log Kill ([2]; 12.5 μg/ml): 6.15
Log Kill ([2]; 25 μg/ml): 6.15
MIC (log phase E. coli [1]): 5 µg/mL
Log Kill (persistent E. coli; 6.25 μg/ml): 0.01
Log Kill (persistent E. coli; 12.5 μg/ml): 0.03
Log Kill (persistent E. coli; 25 μg/ml): 6.21

Polymyxin E (Colistin)
spectrophotometer reading (log phase E. coli [4]; polymyxin E 0.0019 μg/ml alone): 1.53
spectrophotometer reading (log phase E. coli [4]; polymyxin E 0.0039 μg/ml alone): 1.55
spectrophotometer reading (log phase E. coli [4]; polymyxin E 0.0078 μg/ml alone): 1.55
spectrophotometer reading (log phase E. coli [4]; polymyxin E 0.015625 μg/ml alone): 1.53
spectrophotometer reading (log phase E. coli [4]; polymyxin E 0.03125 μg/ml alone): 1.42
spectrophotometer reading (log phase E. coli [4]; polymyxin E 0.0625 μg/ml alone): 1.52
spectrophotometer reading (log phase E. coli [4]; polymyxin E 0.125 μg/ml alone): 1.48
spectrophotometer reading (log phase E. coli [4]; polymyxin E 0.25 μg/ml alone): 1.25
spectrophotometer reading (log phase E. coli [4]; polymyxin E 0.5 μg/ml alone): 0.49
spectrophotometer reading (log phase E. coli [4]; polymyxin E 1 μg/ml alone): 0.49
spectrophotometer reading (log phase E. coli [4]; polymyxin E 2 μg/ml alone): 0.50
spectrophotometer reading ([3]; colistin 0.5 mg/L alone, Table 6): 1.08
spectrophotometer reading ([3]; colistin 0.5 mg/L alone, Table 7): 0.98
spectrophotometer reading ([3]; colistin 0.5 mg/L alone, Table 8): 0.94
spectrophotometer reading ([3]; colistin 0.5 mg/L alone, Table 9): 1.12
spectrophotometer reading ([3]; colistin 0.5 mg/L alone, Table 10): 1.14
spectrophotometer reading ([3]; colistin 0.5 mg/L alone, Table 11): 0.96
spectrophotometer reading ([3]; colistin 1 mg/L alone, Table 6): 1.03
spectrophotometer reading ([3]; colistin 1 mg/L alone, Table 7): 1.02
spectrophotometer reading ([3]; colistin 1 mg/L alone, Table 8): 0.94
spectrophotometer reading ([3]; colistin 1 mg/L alone, Table 9): 1.13
spectrophotometer reading ([3]; colistin 1 mg/L alone, Table 10): 1.12
spectrophotometer reading ([3]; colistin 1 mg/L alone, Table 11): 0.93
spectrophotometer reading ([3]; colistin 2 mg/L alone, Table 6): 1.05
spectrophotometer reading ([3]; colistin 2 mg/L alone, Table 7): 0.95
spectrophotometer reading ([3]; colistin 2 mg/L alone, Table 8): 0.87
spectrophotometer reading ([3]; colistin 2 mg/L alone, Table 9): 1.07
spectrophotometer reading ([3]; colistin 2 mg/L alone, Table 10): 1.09
spectrophotometer reading ([3]; colistin 2 mg/L alone, Table 11): 0.91
spectrophotometer reading ([3]; colistin 4 mg/L alone, Table 6): 0.34
spectrophotometer reading ([3]; colistin 4 mg/L alone, Table 7): 0.87
spectrophotometer reading ([3]; colistin 4 mg/L alone, Table 8): 0.54
spectrophotometer reading ([3]; colistin 4 mg/L alone, Table 9): 0.80
spectrophotometer reading ([3]; colistin 4 mg/L alone, Table 10): 0.89
spectrophotometer reading ([3]; colistin 4 mg/L alone, Table 11): 0.90
spectrophotometer reading ([3]; colistin 8 mg/L alone, Table 6): 0.82
spectrophotometer reading ([3]; colistin 8 mg/L alone, Table 7): 0.44
spectrophotometer reading ([3]; colistin 8 mg/L alone, Table 8): 0.57
spectrophotometer reading ([3]; colistin 8 mg/L alone, Table 9): 0.68
spectrophotometer reading ([3]; colistin 8 mg/L alone, Table 10): 0.63
spectrophotometer reading ([3]; colistin 8 mg/L alone, Table 11): 0.53
spectrophotometer reading ([3]; colistin 16 mg/L alone, Table 6): 0.78
spectrophotometer reading ([3]; colistin 16 mg/L alone, Table 7): 0.53
spectrophotometer reading ([3]; colistin 16 mg/L alone, Table 8): 0.39
spectrophotometer reading ([3]; colistin 16 mg/L alone, Table 9): 0.40
spectrophotometer reading ([3]; colistin 16 mg/L alone, Table 10): 0.69
spectrophotometer reading ([3]; colistin 16 mg/L alone, Table 11): 0.48
spectrophotometer reading ([3]; colistin 32 mg/L alone, Table 6): 0.33
spectrophotometer reading ([3]; colistin 32 mg/L alone, Table 7): 0.36
spectrophotometer reading ([3]; colistin 32 mg/L alone, Table 8): 0.41
spectrophotometer reading ([3]; colistin 32 mg/L alone, Table 9): 0.39
spectrophotometer reading ([3]; colistin 32 mg/L alone, Table 10): 0.40
spectrophotometer reading ([3]; colistin 32 mg/L alone, Table 11): 0.41
Colistin MIC ([3]; colistin alone): 32 µg/mL and 16 µg/mL
Colistin MIC ([3]; combined with 32 mg/L of suloctidil): 1 µg/mL
Colistin MIC ([3]; combined with 64 mg/L of mefloquine): 0.5 µg/mL

Vitamin B12
MIC (log phase E. coli [1]): — (— signifies MIC higher than 50 μg/ml)
Log Kill (persistent E. coli; 6.25 μg/ml): 0.03
Log Kill (persistent E. coli; 12.5 μg/ml): 6.21
Log Kill (persistent E. coli; 25 μg/ml): 6.21
